Drawing on patent publication US12590122B2, “NRP-1 binding inhibitory peptides and uses thereof” (priority 2019, dated 2026), this text covers IC50 for eleven molecules.

Where two headings read alike, the source gives them in different places. Where a SMILES comes first, the peptide text is derived from it.

Test [1] has as its target T1, NRP-1 (Homo sapiens, UniProt O14786). The conditions noted are these: comparative branched peptides without cysteine; colorimetric method; cited from earlier work.
Test [2] addresses T1, NRP-1. The test is described as follows: NRP-1 binding assay: inhibition of (bt)-VEGF-A165 binding to immobilized NRP-1, chemiluminescent detection. As to the method:
More precisely, the inventors have shown that the compounds of formula (I) disclosed herein bind to NRP-1 at the nanomolar level whereas the most efficient known inhibitors to date bind to NRP-1 at the micromolar level.
The flat bottom surface of a 96-well plate was coated with 100 μL (200 ng/well) recombinant human NRP-1 and incubated overnight at 4° C. Non-specific binding was blocked by the incubation with 0.5% BSA in PBS. 50 μL of peptide dissolved in PBS in range concentrations and 50 μL (400 ng/mL) of human (bt)-VEGF-A165 in PBS containing 4 μg/mL of heparin were added respectively. After 2 h incubation at room temperature the plate was washed and treated with streptavidin-horseradish peroxidase conjugate in PBS (1:8000). Chemiluminescence was quantified immediately after addition of 100 μL Chemiluminescent substrate. In a positive control only (bt)-VEGF-A165 was present in wells, while, in negative control, wells were not coated by NRP-1. Percentages of inhibition were calculated by the following formula: 100%−[[(S−[…])/(P−NS)]·100%] where S is the signal intensity measured, NS is the signal measured in negative control, and P is the signal measured in positive control.
Selected active branched peptides were tested again using a more sensitive method with chemiluminescent detection. Moreover, some modified compounds were also examined. The IC50 for selected Lys(hArg)-X-X-Arg peptides was between 2-21 μM (Puszko A. K. at al. Neuropilin-1 peptide-like ligands with proline mimetics, tested using the improved chemiluminescence affinity detection method. MedChemComm, 2019, Vol. 10: 332-340).

Test [3] concerns the target T1, NRP-1. Conditions: further comparative branched peptides without cysteine; chemiluminescent detection (Puszko et al. 2019); cited from earlier work.
The mark [4] stands for this setting: peptides of formula (I), chemiluminescence binding assay, read-out: IC50.

T1 sequence (O14786 22-923): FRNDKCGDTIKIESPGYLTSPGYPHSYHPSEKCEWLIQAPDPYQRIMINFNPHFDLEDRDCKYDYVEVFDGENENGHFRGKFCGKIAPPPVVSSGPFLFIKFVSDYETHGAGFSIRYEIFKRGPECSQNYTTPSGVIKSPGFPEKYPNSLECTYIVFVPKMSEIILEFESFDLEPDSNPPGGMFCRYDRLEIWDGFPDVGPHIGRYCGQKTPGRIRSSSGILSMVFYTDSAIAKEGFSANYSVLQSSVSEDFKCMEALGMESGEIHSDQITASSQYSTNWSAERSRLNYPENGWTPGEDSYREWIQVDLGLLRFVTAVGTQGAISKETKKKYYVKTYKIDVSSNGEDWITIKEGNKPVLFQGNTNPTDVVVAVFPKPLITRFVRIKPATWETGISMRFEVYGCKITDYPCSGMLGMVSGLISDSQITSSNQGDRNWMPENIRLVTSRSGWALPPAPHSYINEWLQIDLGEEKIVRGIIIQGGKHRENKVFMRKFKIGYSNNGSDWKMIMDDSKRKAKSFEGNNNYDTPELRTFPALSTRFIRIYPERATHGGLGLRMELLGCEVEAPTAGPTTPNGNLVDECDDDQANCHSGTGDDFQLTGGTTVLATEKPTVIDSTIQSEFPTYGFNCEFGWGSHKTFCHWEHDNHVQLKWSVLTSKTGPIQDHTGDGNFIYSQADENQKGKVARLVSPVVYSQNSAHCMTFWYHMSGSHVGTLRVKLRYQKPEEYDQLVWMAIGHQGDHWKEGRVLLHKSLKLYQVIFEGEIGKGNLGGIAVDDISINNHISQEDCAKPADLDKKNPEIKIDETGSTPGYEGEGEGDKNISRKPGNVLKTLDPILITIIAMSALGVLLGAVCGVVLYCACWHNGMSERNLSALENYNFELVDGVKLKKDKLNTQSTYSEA

In general, IC50 refers to the concentration needed to halve the response being measured. For `N=C(N)NCCCC[C@H](N)C(=O)NCCCC[C@H](N)C(=O)N[C@@H](CN)C(=O)N1CCC[C@H]1C(=O)N[C@@H](CCCNC(=N)N)C(=O)O` [H-Lys(hArg)-Dap-Pro-Arg-OH] (HELM PEPTIDE1{K.[NC[C@H](N[*:1])C(=O)[*:2]].P.R}|PEPTIDE2{[N=C(N)NCCCC[C@H](N)C(=O)[*:2]]}$PEPTIDE1,PEPTIDE2,1:R3-1:R2$$$V2.0), on NRP-1 [1], the IC50 was 200 nM.

For `N=C(N)NCCCC[C@H](N)C(=O)NCCCC[C@H](N)C(=O)N1CCC[C@H]1C(=O)N1CCC[C@H]1C(=O)N[C@@H](CCCNC(=N)N)C(=O)O` [H-Lys(hArg)-Pro-Pro-Arg-OH] (HELM PEPTIDE1{K.P.P.R}|PEPTIDE2{[N=C(N)NCCCC[C@H](N)C(=O)[*:2]]}$PEPTIDE1,PEPTIDE2,1:R3-1:R2$$$V2.0), the IC50 on NRP-1 [1] is 1000 nM.

On to `N=C(N)NCCCC[C@H](NC(=O)[C@@H](N)CS)C(=O)NCCCC[C@H](N)C(=O)N[C@@H](CCN)C(=O)N1CC=C[C@H]1C(=O)N[C@@H](CCCNC(=N)N)C(=O)O` [H-Lys(Cys-hArg)-Dab-ΔPro-Arg-OH] (HELM PEPTIDE1{K.[Dab].[O=C([C@@H]1C=CCN1[*:1])[*:2]].R}|PEPTIDE2{C.[N=C(N)NCCCC[C@H](N[*:1])C(=O)[*:2]]}$PEPTIDE1,PEPTIDE2,1:R3-2:R2$$$V2.0), for which the half-maximal inhibitory concentration (IC50) on NRP-1 [2] (setting [4]) is 0.06 µM.

On to H-Lys(hArg)-Oic-Oic-Arg-OH, for which the 50% inhibitory concentration (IC50) at NRP-1 [3] was 7200 nM.

Turning to `N=C(N)NCCCC[C@H](N)C(=O)NCCCC[C@H](N)C(=O)N[C@@H](CCN)C(=O)N1CCC[C@H]1C(=O)N[C@@H](CCCNC(=N)N)C(=O)O` [H-Lys(hArg)-Dab-Pro-Arg-OH] (HELM PEPTIDE1{K.[Dab].P.R}|PEPTIDE2{[N=C(N)NCCCC[C@H](N)C(=O)[*:2]]}$PEPTIDE1,PEPTIDE2,1:R3-1:R2$$$V2.0), on NRP-1 [1], the IC50 was 200 nM.

In the case of `N=C(N)NCCCC[C@H](N)C(=O)NCCCC[C@H](NC(=O)[C@@H](N)CS)C(=O)N[C@@H](CCN)C(=O)N1C2CCCCC2C[C@H]1C(=O)N[C@@H](CCCNC(=N)N)C(=O)O` (stereo partly drawn) [H-Cys-Lys(hArg)-Dab-Oic-Arg-OH] (HELM PEPTIDE1{C.K.[Dab].[O=C([C@@H]1CC2CCCCC2N1[*:1])[*:2]].R}|PEPTIDE2{[N=C(N)NCCCC[C@H](N)C(=O)[*:2]]}$PEPTIDE1,PEPTIDE2,2:R3-1:R2$$$V2.0), the IC50 on NRP-1 [2] (setting [4]) worked out at 0.05 µM.

With `N=C(N)NCCCC[C@H](NC(=O)[C@@H](N)CS)C(=O)NCCCC[C@H](N)C(=O)N[C@@H](CCN)C(=O)N1C2CCCCC2C[C@H]1C(=O)N[C@@H](CCCNC(=N)N)C(=O)O` (stereo partly drawn) [H-Lys(Cys-hArg)-Dab-Oic-Arg-OH] (HELM PEPTIDE1{K.[Dab].[O=C([C@@H]1CC2CCCCC2N1[*:1])[*:2]].R}|PEPTIDE2{C.[N=C(N)NCCCC[C@H](N[*:1])C(=O)[*:2]]}$PEPTIDE1,PEPTIDE2,1:R3-2:R2$$$V2.0), the IC50 at NRP-1 [2] (setting [4]) was 0.04 µM.

Turning to `C[C@@H](O)[C@H](N)C(=O)N[C@@H](CCCCN)C(=O)N1CCC[C@H]1C(=O)N[C@@H](CCCNC(=N)N)C(=O)O` [TKPR] (H-TKPR-OH; N-terminus and C-terminus assumed), the IC50 on NRP-1 [2] (parent tetrapeptide without N-terminal Cys, VEGF-A165/NRP-1 binding, read-out: IC50 [μM] without Cys) was greater than 100 µM.

Take H-Lys(hArg)-Dab-Oic-Arg-OH: the half-maximal inhibitory concentration (IC50) at NRP-1 [3] is 2300 nM.

For the molecule `N=C(N)NCCCC[C@H](N)C(=O)NCCCC[C@H](N)C(=O)N1CCC[C@H]1C(=O)N[C@@H](CCN)C(=O)N[C@@H](CCCNC(=N)N)C(=O)O` [H-Lys(hArg)-Pro-Dab-Arg-OH] (HELM PEPTIDE1{K.P.[Dab].R}|PEPTIDE2{[N=C(N)NCCCC[C@H](N)C(=O)[*:2]]}$PEPTIDE1,PEPTIDE2,1:R3-1:R2$$$V2.0), on NRP-1 [1], the half-maximal inhibitory concentration (IC50) was 200 nM.

As for `N=C(N)NCCCC[C@H](N)C(=O)NCCCC[C@H](NC(=O)[C@@H](N)CS)C(=O)N[C@@H](CCN)C(=O)N1CC=C[C@H]1C(=O)N[C@@H](CCCNC(=N)N)C(=O)O` [H-Cys-Lys(hArg)-Dab-ΔPro-Arg-OH] (HELM PEPTIDE1{C.K.[Dab].[O=C([C@@H]1C=CCN1[*:1])[*:2]].R}|PEPTIDE2{[N=C(N)NCCCC[C@H](N)C(=O)[*:2]]}$PEPTIDE1,PEPTIDE2,2:R3-1:R2$$$V2.0), the IC50 on NRP-1 [2] (setting [4]) turned out to be 0.07 µM.
